According to patent publication US5506213A, “Adminstration of 2'-halo-2'-deoxy adenosine to treat inflammatory bowel disease” (priority 1994, dated 1996):

Tests used:
[1] = system: delayed-type hypersensitivity (DTH) reaction; experiment: Delayed-type hypersensitivity to ovalbumin in guinea pigs, different dosages of CdA; format: in vivo, guinea pig; settings: for swelling compared to control saline treated animals: 24 and 48 hours post-challenge, p<0.01
Procedure: Delayed-type hypersensitivity (DTH) is a cell-mediated immune response that typically takes longer than 12 hours to develop. In the guinea pig, a DTH reaction to an antigen can be established by first immunizing the animal with the antigen in an adjuvant such as Freund's complete adjuvant. Subsequent intradermal injection of the antigen causes no change for at least 10 hours, after which there is a gradual increase in erythema and swelling in response to antigen injection. This response peaks about at about 24 hours after challenge, then gradually subsides.
In another study, the effects of different dosages of CdA on the DTH reaction were examined. Guinea pigs sensitized to ovalbumin were treated with saline (control), dexamethasone (5 mg/kg), and CdA at 1 mg/kg or 0.1 mg/kg. Three days after treatment, the animals were challenged with ovalbumin intradermally. The areas of the skin lesions were measured at 6, 24, and 48 hours after challenge.

[2] = system: DNA strand breaks in human monocytes; experiment: DNA damage in monocytes, fluorescent assay for DNA unwinding in alkaline solution; format: cell-based; settings: for additional residual double-stranded DNA (repair) after CdA removal: over the next four hours
Procedure: FIG. 4 is a graph of the dose- and time-dependence for CdA in inducing DNA strand breaks in monocytes in vitro.
Monocytes were plated as discussed previously, and were then contacted with compositions containing various concentrations of CdA. The amount of DNA damage in monocytes exposed to CdA was determined by the fluorescent assay for DNA unwinding in alkaline solution described by Birnboim and Jevcak (1981) Cancer Res., 41:1889-1892, modified to accommodate lower cell numbers (Thierry et al. (1985) Radiation Res., 102:347-358).
The unwinding rate of DNA in alkaline solution at 15 degrees C. is proportional to the number of DNA strand breaks or alkali-labile sites. The ethidium bromide fluorescence of residual duplex DNA in samples exposed to pH 12.8 for one hour was compared to the fluorescence of a DNA aliquot that was not exposed to alkali. The percent residual double-stranded DNA at 1 hour was taken as a measure of the DNA damage in the sample. The results are illustrated in FIG. 4.
The repair of monocyte DNA damage caused by CdA was compared to the damage caused by gamma irradiation. Monocytes were pre-exposed to 0.1 or 1.0 μM CdA for four hours. At the end of this time, approximately 60 percent residual double-stranded DNA was present in the cells. The CdA was removed, and the amount of residual double-stranded DNA was calculated over the next four hours. Any increase in doublestranded DNA represents ongoing repair mechanisms.

[3] = system: rheumatoid arthritis; experiment: CdA 5-day continuous infusion in rheumatoid arthritis patients: cell counts and joint parameters; format: in vivo, human
Procedure: FIG. 7 is a graph showing the results of a study of the cytotoxicity of CdA toward monocytes and lymphocytes of a rheumatoid arthritis patient receiving CdA therapy. A continuous intravenous infusion of CdA (0.1 mg/ml in isotonic saline) was administered at a dosage of 0.1 mg/kg per day for a five-day period. Monocyte numbers are shown as open squares and lymphocyte numbers are shown as closed diamonds. Three cycles of infusions of CdA were given, and are illustrated as open rectangles for the five-day time periods of each infusion at a position in the graph above the days in the treatment regimen on which infusions were given.
A study similar to that described in Example 1 was carried out with three patients having rheumatoid arthritis. In each instance, the patient had been unsuccessfully treated with methotrexate, a gold salt or penicillamine, which treatment had been stopped three weeks prior to the first treatment with CdA. […]
A specially trained nurse examined the number of swollen and painful joints in each of the patients prior to the start of each treatment. The values obtained are as listed for each patient.
PIP joint measurements refer to the total arthrocircameter measurements, in mm, of each proximal interphalangeal (PIP) joint, for each patient. Values are shown for each of the three patients.
Each patient was asked to rank his or her performance of nine function parameters on a 0 to 10 scale, 10 being the highest. These function parameters were: turning in bed, rising from a chair, buttoning buttons, combing hair, walking, turning knobs, climbing stairs, getting in and out of an automobile, and general well being. The total score on these nine parameters for each patient is listed as the performance index.

[4] = system: 2 week old cultured monocytes (differentiated macrophages); experiment: In vitro cytotoxicity toward 2 week old cultured monocytes; format: cell-based, human
[5] = cited from earlier work
[6] = Pt. # 1, CdA treatment course 1
[7] = Pt. # 1, CdA treatment course 2
[8] = Pt. # 1, CdA treatment course 3
[9] = Pt. # 1, prior to start of CdA treatment course 1
[10] = Pt. # 1, prior to start of CdA treatment course 2
[11] = Pt. # 1, prior to start of CdA treatment course 3
[12] = Pt. # 2, CdA treatment course 1
[13] = Pt. # 2, CdA treatment course 2
[14] = Pt. # 2, CdA treatment course 3
[15] = Pt. # 2, prior to start of CdA treatment course 1
[16] = Pt. # 2, prior to start of CdA treatment course 2
[17] = Pt. # 2, prior to start of CdA treatment course 3
[18] = Pt. # 2, prior to start of CdA treatment course 4
[19] = Pt. # 2, prior to start of CdA treatment course 5
[20] = Pt. # 2, prior to start of CdA treatment course 6
[21] = Pt. # 3, CdA treatment course 1
[22] = Pt. # 3, CdA treatment course 2
[23] = Pt. # 3, CdA treatment course 3
[24] = Pt. # 3, prior to start of CdA treatment course 1
[25] = Pt. # 3, prior to start of CdA treatment course 2
[26] = Pt. # 3, prior to start of CdA treatment course 3
[27] = Pt. # 3, prior to start of CdA treatment course 4

SMILES: Nc1nc(Cl)nc2c1ncn2[C@H]1C[C@H](O)[C@@H](CO)O1 [CdA, 2-chloro-9,1'-beta-D-2'-deoxyribosyladenine]
- numerical values of the areas of swelling relative to dexamethasone ([1]; 0.1 and 1.0 mg/kg CdA, substantially the same): slightly less than the value obtained with dexamethasone
- swelling compared to control saline treated animals ([1]; CdA 0.1 mg/kg): effective at inhibiting swelling
- swelling compared to control saline treated animals ([1]; CdA 1 mg/kg): effective at inhibiting swelling
- time to appearance of DNA breaks ([2]; 10 nM CdA): ≤ 2 h
- additional residual double-stranded DNA (repair) after CdA removal ([2]; 0.1 μM CdA): 10%
- additional residual double-stranded DNA (repair) after CdA removal ([2]; 1.0 μM CdA): no increase
- residual double-stranded DNA ([2]; pre-exposed to 0.1 or 1.0 μM CdA for four hours): approximately 60%
- PIP Joint Measurement (Totals, in mm) [3, 6]: 583 mm
- Performance Index (total score on nine function parameters, each 0 to 10) [3, 6]: 70
- PIP Joint Measurement (Totals, in mm) [3, 7]: 612 mm
- Performance Index (total score on nine function parameters, each 0 to 10) [3, 7]: 33
- PIP Joint Measurement (Totals, in mm) [3, 8]: 560 mm
- Performance Index (total score on nine function parameters, each 0 to 10) [3, 8]: 27
- Painful Joints [3, 9]: 73/38
- Swollen Joints [3, 9]: 51/47
- Painful Joints [3, 10]: 39
- Swollen Joints [3, 10]: 37
- Painful Joints [3, 11]: 23
- Swollen Joints [3, 11]: 25
- PIP Joint Measurement (Totals, in mm) [3, 12]: 527 mm
- Performance Index (total score on nine function parameters, each 0 to 10) [3, 12]: 46
- PIP Joint Measurement (Totals, in mm) [3, 13]: 526 mm
- Performance Index (total score on nine function parameters, each 0 to 10) [3, 13]: 28
- PIP Joint Measurement (Totals, in mm) [3, 14]: 531 mm
- Performance Index (total score on nine function parameters, each 0 to 10) [3, 14]: 22
- PIP Joint Measurement (Totals, in mm) ([3]; Pt. # 2, CdA treatment course 4): 498 mm
- PIP Joint Measurement (Totals, in mm) ([3]; Pt. # 2, CdA treatment course 5): 485 mm
- PIP Joint Measurement (Totals, in mm) ([3]; Pt. # 2, CdA treatment course 6): 506 mm
- Painful Joints [3, 15]: 32
- Swollen Joints [3, 15]: 9
- Painful Joints [3, 16]: 34
- Swollen Joints [3, 16]: 27
- Painful Joints [3, 17]: 28
- Swollen Joints [3, 17]: 25
- Painful Joints [3, 18]: 36
- Swollen Joints [3, 18]: 22
- Painful Joints [3, 19]: 27
- Swollen Joints [3, 19]: 23
- Painful Joints [3, 20]: 26
- Swollen Joints [3, 20]: 14
- PIP Joint Measurement (Totals, in mm) [3, 21]: 560 mm
- Performance Index (total score on nine function parameters, each 0 to 10) [3, 21]: 30
- PIP Joint Measurement (Totals, in mm) [3, 22]: 548 mm
- Performance Index (total score on nine function parameters, each 0 to 10) [3, 22]: 36
- PIP Joint Measurement (Totals, in mm) [3, 23]: 549 mm
- Performance Index (total score on nine function parameters, each 0 to 10) [3, 23]: 32
- PIP Joint Measurement (Totals, in mm) ([3]; Pt. # 3, CdA treatment course 4): 602 mm
- Painful Joints [3, 24]: 36
- Swollen Joints [3, 24]: 16
- Painful Joints [3, 25]: 40
- Swollen Joints [3, 25]: 17
- Painful Joints [3, 26]: 54
- Swollen Joints [3, 26]: 14
- Painful Joints [3, 27]: 59
- Swollen Joints [3, 27]: 11
- time for monocyte numbers to return to approximately pre-treatment number ([3]; after infusion of CdA was stopped for each cycle): within about ten days
- arthritic disease states at follow-up ([3]; all three patients, reported by personal physicians): had improved
- total white cell count drop from pretreatment values ([3]; follow-up, two patients, lasted about three years and over one year post treatment): about 50%
- adverse event leading to drop-out ([3]; one patient, after CdA treatment): overwhelming fatigue phenomenon
- monocyte number ([3]; patient 1, during each CdA administration cycle, 0.1 mg/kg per day, five days): dropped to substantially zero
- neutrophil and platelet numbers ([3]; patient 1, throughout the one hundred days of the study): substantially constant
- patients with a reduction in the number of painful or swollen joints ([3]; three rheumatoid arthritis patients): two of the three patients
- IC50 ([4]; Homo sapiens, Monocyte, 336 h, read-out: CdA concentration at which 50 percent of 2 week old cultured monocytes were killed): > 250 nM
- increase in resistance of 2 week old cultured versus freshly isolated monocytes ([4]; human, monocytes): over 12.5 times
- plasma level at which dose-limiting bone marrow suppression usually occurred ([5]; humans, infusion): greater than 20 nM
- concentration ([5]; infusion of 0.1-0.5 mg/kg/day, humans, read-out: plasma concentrations of the drug): 10 to 50 nM
- tolerability ([5]; infusion, no nausea, vomiting or fever): well tolerated
